Assay results as given in patent US20240115557A1, “INHIBITORS OF RNA-GUIDED NUCLEASES AND USES THEREOF” (The Brigham and Women's Hospital, Inc., priority 2022, published 2024).

Tests used:
[1] = biological target: T1, SpCas9 (Streptococcus pyogenes serotype M1, UniProt Q99ZW2); assay: Strand displacement assay (SDA) / cumulative activity assay (CAA), SpCas9 primary screen; format: biochemical; conditions: result in words
In short: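 SpCas9:gRNA RNP in 20 mM Tris-HCl pH 7.5, 100 mM KCl, 5 mM MgCl2 was used at 10 nM (2× stock) with Alexa Fluor 647-labelled substrate and excess quencher strand (1 nM and 5 nM, 2× stocks). Fluorescence was read after 2.5 h at 37 °C, where cleavage lets the quencher strand anneal.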

[2] = biological target: T1, SpCas9; assay: HiBiT knock-in assay, SpCas9, HEK293T cells; format: cell-based
From the text: Primary and secondary screening. The primary screen assayed a selection of unique chemical scaffolds derived from commercially available compounds and known bioactive molecular libraries (Table 7). Auto-fluorescent compounds were removed by a counter screen. Overall, the CAA was used to assay 122,409 small molecules with over 2,500 unique chemical scaffolds (FIG. 64F, Table 7). Of these compounds, 547 were selected as hits (Z score >3 in both replicates) for testing in orthogonal cell-based secondary assays. Hits were tested in duplicate in an eGFP disruption assay, wherein U2OS.eGFP.PEST cells^33 transfected with SpCas9 plasmid and eGFP-targeting gRNA plasmid were incubated with 20 μM of the compounds. In this assay, any compound that inhibited SpCas9 would rescue the loss of eGFP fluorescence. Here, toxic and auto-fluorescent compounds with a high GFP signal in cells were removed as false positives. […] Next, Applicants tested the 15 compounds in a luminescence-based gain-of-signal HiBiT knock-in assay, which involves SpCas9-mediated homology-directed tagging of GAPDH with a short peptide that luminesces upon complementation with a subunit derived from nanoluciferase.^34 Complementarily, the eGFP-disruption assay is fluorescence-based and involves error-prone DNA repair. As a counter-screen to remove false positives caused by cell death (viability <80%), the cell viability was measured after incubation.
Approximately 400,000 HEK293T cells were nucleofected with 400 ng of SpCas9 plasmid, 40 ng of GAPDH-targeting gRNA plasmid, and 40 pmol of single-strand oligodeoxynucleotide (ssODN) using SF Cell Line 4D-Nucleofector X Kit (Lonza) following the pulse program of DS-150. For RNP-based genome editing, 10 pmol of Cas9 and 12 pmol of gRNA were mixed and incubated for 5 min. Then, 20 pmol of ssODN was added. Cells were nucleofected with the resulting mixture using the same pulse program. Cells were then transferred to a 96-well plate at the density of 35,000 cells per well, and incubated with indicated amount of compounds for 24 h. Cell viability was measured using PrestoBlue reagent (Thermo) with a SpectraMax M5 (Molecular Devices) at the excitation and emission wavelength of 544 nm and 590 nm, respectively. Next, luminescence measurement was performed using the Nano-Glo HiBiT Lytic Detection System (Promega) according to the manufacturer's protocol with an EnVision Multilabel Plate Reader (PerkinElmer) at the integration time of 0.5 s per well. The resulting luminescence signals were normalized based on the cell viability.^34

[3] = biological target: T1, SpCas9; assay: In vitro DNA cleavage assay, SpCas9; format: biochemical; conditions: 0-40 μM
Experimental: First, Cas9:gRNA complex (30 nM Cas9 (NEB) and 36 nM eGFP targeting gRNA) was formed by mixing each component at a 1:1.2 (Cas9:gRNA) molar ratio and incubating at room temperature for 10 minutes. BRD7586 at doses 0, 5, 10, 20, 30, 40 μM were incubated with Cas9:gRNA complex at 37° C. for 30 minutes at 700 rpm. PCR amplified target eGFP DNA (2 nM) was added after 30 minutes of compound incubation and the mixture was incubated at 37° C. for 30 minutes at 700 rpm. Proteinase K (5 μL) was added and incubated at 37° C. for 30 minutes at 700 rpm to digest the Cas9. The resulting mixtures were purified PCR mini elute kit (Qiagen) and the eluted DNA was quantified by Qubit HS DNA quantification method. Equal amounts of DNA samples were run on a 1% agarose E-gels (invitrogen) for 7 minutes. Images were obtained by an Azure 600 (Azure Biosystem) and quantification of band intensities were performed by ImageJ based analysis.

T1 sequence (Q99ZW2 whole entry): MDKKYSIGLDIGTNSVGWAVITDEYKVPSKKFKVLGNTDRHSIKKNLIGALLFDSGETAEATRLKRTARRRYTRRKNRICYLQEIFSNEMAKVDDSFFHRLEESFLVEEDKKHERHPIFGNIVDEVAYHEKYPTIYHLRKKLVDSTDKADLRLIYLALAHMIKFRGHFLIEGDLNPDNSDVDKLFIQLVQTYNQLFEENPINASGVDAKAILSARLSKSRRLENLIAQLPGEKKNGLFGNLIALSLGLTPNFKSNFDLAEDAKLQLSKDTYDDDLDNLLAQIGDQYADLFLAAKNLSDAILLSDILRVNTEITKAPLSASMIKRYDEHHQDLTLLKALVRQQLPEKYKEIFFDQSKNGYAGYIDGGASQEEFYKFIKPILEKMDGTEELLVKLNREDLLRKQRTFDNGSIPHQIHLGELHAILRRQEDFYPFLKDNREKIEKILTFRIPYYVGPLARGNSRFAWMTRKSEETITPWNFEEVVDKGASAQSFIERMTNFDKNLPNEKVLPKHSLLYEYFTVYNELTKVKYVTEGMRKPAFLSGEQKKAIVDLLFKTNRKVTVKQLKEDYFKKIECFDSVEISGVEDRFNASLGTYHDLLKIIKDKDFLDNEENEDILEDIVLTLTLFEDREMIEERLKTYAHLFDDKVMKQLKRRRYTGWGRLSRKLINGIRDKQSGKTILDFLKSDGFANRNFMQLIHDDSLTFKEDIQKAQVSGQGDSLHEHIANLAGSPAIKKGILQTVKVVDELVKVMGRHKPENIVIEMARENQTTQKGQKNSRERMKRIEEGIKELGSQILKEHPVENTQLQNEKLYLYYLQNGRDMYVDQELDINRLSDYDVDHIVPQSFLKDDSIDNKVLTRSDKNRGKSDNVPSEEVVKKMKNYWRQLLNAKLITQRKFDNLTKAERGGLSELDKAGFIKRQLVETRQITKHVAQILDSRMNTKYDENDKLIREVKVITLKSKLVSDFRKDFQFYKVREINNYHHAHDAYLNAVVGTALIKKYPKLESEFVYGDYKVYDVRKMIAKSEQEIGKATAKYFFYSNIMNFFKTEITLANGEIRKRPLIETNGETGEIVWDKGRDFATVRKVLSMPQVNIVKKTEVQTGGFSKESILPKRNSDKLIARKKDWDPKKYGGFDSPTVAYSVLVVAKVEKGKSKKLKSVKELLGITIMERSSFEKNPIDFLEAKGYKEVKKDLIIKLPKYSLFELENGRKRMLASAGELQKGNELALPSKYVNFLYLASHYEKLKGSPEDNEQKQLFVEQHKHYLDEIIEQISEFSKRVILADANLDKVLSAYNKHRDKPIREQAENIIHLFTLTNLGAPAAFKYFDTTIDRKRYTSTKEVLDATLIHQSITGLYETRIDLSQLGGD

Question: Which “Inhibition of SpCas9 in CAA” value [1] does the source give for O=C(CCS(=O)(=O)c1ccc(Cl)cc1)Nc1nc(-c2ccncc2)cs1 [BRD7586] here?
Answer: Its value is “dose-dependent inhibition”.

Question: And the EC50 ([2]; EC50 in HiBit knockin assay, HEK293T, SpCas9 plasmid, sgRNA plasmid and ssODN, 0.06 uM to 20 uM, 24 h (FIG. 44D))?
Answer: Its EC50 is 5.04 µM.

Question: What about the EC50 ([2]; EC50 in the HiBiT knock-in assay, from three independent experiments) of the same compound?
Answer: The EC50 was 5.7 ± 0.36 µM.

Question: And the “Inhibition of SpCas9 in in vitro DNA cleavage assay” value [3]?
Answer: The value was “dose-dependent inhibition”.
